According to ChEMBL document CHEMBL1201862, “PubChem BioAssay data set” (2004):
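Test compounds were applied to cells in 96-well plates for 48 hours at 5 doses. At the GI50, growth is halved.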 Active and inactive are the calls of the source. Rule as the data show it: active = GI50 up to about 1.1 µM and inactive = higher.

Tests used:
Assay in all cases: DTP human tumour cell line panel, 48 h
NCI-H23 = tested on: NCI-H23
IGROV-1 = tested on: IGROV-1
T47D = tested on: T47D
ACHN = tested on: ACHN
UO-31 = tested on: UO-31
SW-620 = tested on: SW-620
HT-29 = tested on: HT-29
U-251 = tested on: U-251
EKVX = tested on: EKVX
CCRF-CEM = tested on: CCRF-CEM
PC-3 = tested on: PC-3
NCI/ADR-RES = tested on: NCI/ADR-RES
NCI-H522 = tested on: NCI-H522
SK-MEL-28 = tested on: SK-MEL-28
SF-268 = tested on: SF-268
LOX IMVI = tested on: LOX IMVI
HOP-92 = tested on: HOP-92
OVCAR-4 = tested on: OVCAR-4
SN12C = tested on: SN12C
DU-145 = tested on: DU-145
RPMI-8226 = tested on: RPMI-8226
HCT-116 = tested on: HCT-116
RXF 393 = tested on: RXF 393
MCF7 = tested on: MCF7
SK-MEL-2 = tested on: SK-MEL-2
MDA-N = tested on: MDA-N
NCI-H226 = tested on: NCI-H226
NCI-H460 = tested on: NCI-H460
UACC-257 = tested on: UACC-257
A549 = tested on: A549
MOLT-4 = tested on: MOLT-4
A498 = tested on: A498
MDA-MB-435 = tested on: MDA-MB-435
M14 = tested on: M14
CAKI-1 = tested on: CAKI-1
SNB-75 = tested on: SNB-75
K562 = tested on: K562
SNB-19 = tested on: SNB-19
786-0 = tested on: 786-0
SF-539 = tested on: SF-539
Malme-3M = tested on: Malme-3M
OVCAR-3 = tested on: OVCAR-3
TK-10 = tested on: TK-10
SK-OV-3 = tested on: SK-OV-3
COLO 205 = tested on: COLO 205
SR = tested on: SR
KM12 = tested on: KM12
MDA-MB-231 = tested on: MDA-MB-231
SF-295 = tested on: SF-295
OVCAR-5 = tested on: OVCAR-5
HOP-62 = tested on: HOP-62
HL-60 = tested on: HL-60
BT-549 = tested on: BT-549
SK-MEL-5 = tested on: SK-MEL-5
OVCAR-8 = tested on: OVCAR-8
HCT-15 = tested on: HCT-15
Hs-578T = tested on: Hs-578T
UACC-62 = tested on: UACC-62

O=C(O)CSc1ccn(Cc2ccccc2)c1
GI50 (NCI-H23): > 100 µM (inactive) | GI50 (IGROV-1): > 100 µM (inactive) | GI50 (T47D): > 100 µM (inactive) | GI50 (ACHN): > 100 µM (inactive) | GI50 (UO-31): > 100 µM (inactive) | GI50 (SW-620): > 100 µM (inactive) | GI50 (HT-29): > 100 µM (inactive) | GI50 (U-251): > 100 µM (inactive) | GI50 (EKVX): > 100 µM (inactive) | GI50 (CCRF-CEM): > 100 µM (inactive) | GI50 (PC-3): > 100 µM (inactive) | GI50 (NCI/ADR-RES): > 100 µM (inactive) | GI50 (NCI-H522): > 100 µM (inactive) | GI50 (SK-MEL-28): > 100 µM (inactive) | GI50 (SF-268): > 100 µM (inactive) | GI50 (LOX IMVI): > 100 µM (inactive) | GI50 (HOP-92): > 100 µM (inactive) | GI50 (OVCAR-4): > 100 µM (inactive) | GI50 (SN12C): > 100 µM (inactive) | GI50 (DU-145): > 100 µM (inactive) | GI50 (RPMI-8226): > 100 µM (inactive) | GI50 (HCT-116): > 100 µM (inactive) | GI50 (RXF 393): > 100 µM (inactive) | GI50 (MCF7): > 100 µM (inactive) | GI50 (SK-MEL-2): > 100 µM (inactive) | GI50 (MDA-N): > 100 µM (inactive) | GI50 (NCI-H226): > 100 µM (inactive) | GI50 (NCI-H460): > 100 µM (inactive) | GI50 (UACC-257): > 100 µM (inactive) | GI50 (A549): > 100 µM (inactive) | GI50 (MOLT-4): > 100 µM (inactive) | GI50 (A498): > 100 µM (inactive) | GI50 (MDA-MB-435): > 100 µM (inactive) | GI50 (M14): > 100 µM (inactive) | GI50 (CAKI-1): > 100 µM (inactive) | GI50 (SNB-75): > 100 µM (inactive) | GI50 (K562): > 100 µM (inactive) | GI50 (SNB-19): > 100 µM (inactive) | GI50 (786-0): > 100 µM (inactive) | GI50 (SF-539): > 100 µM (inactive) | GI50 (Malme-3M): > 100 µM (inactive) | GI50 (OVCAR-3): > 100 µM (inactive) | GI50 (TK-10): > 100 µM (inactive) | GI50 (SK-OV-3): > 100 µM (inactive) | GI50 (COLO 205): > 100 µM (inactive) | GI50 (SR): > 100 µM (inactive) | GI50 (KM12): > 100 µM (inactive) | GI50 (MDA-MB-231): > 100 µM (inactive) | GI50 (SF-295): > 100 µM (inactive) | GI50 (OVCAR-5): > 100 µM (inactive) | GI50 (HOP-62): > 100 µM (inactive) | GI50 (HL-60): > 100 µM (inactive) | GI50 (BT-549): > 100 µM (inactive) | GI50 (SK-MEL-5): > 100 µM (inactive) | GI50 (OVCAR-8): > 100 µM (inactive) | GI50 (HCT-15): > 100 µM | GI50 (Hs-578T): > 100 µM (inactive) | GI50 (UACC-62): > 100 µM (inactive)

CC(C)C(Nc1ncnc2nc[nH]c12)C(=O)O (configuration not stated)
GI50 (NCI-H23): > 100 µM (inactive) | GI50 (IGROV-1): > 100 µM (inactive) | GI50 (T47D): > 100 µM (inactive) | GI50 (ACHN): > 100 µM (inactive) | GI50 (UO-31): > 100 µM (inactive) | GI50 (SW-620): > 100 µM (inactive) | GI50 (HT-29): > 100 µM (inactive) | GI50 (U-251): > 100 µM (inactive) | GI50 (EKVX): > 100 µM (inactive) | GI50 (CCRF-CEM): > 100 µM (inactive) | GI50 (PC-3): > 100 µM (inactive) | GI50 (NCI/ADR-RES): > 100 µM (inactive) | GI50 (NCI-H522): > 100 µM (inactive) | GI50 (SK-MEL-28): > 100 µM (inactive) | GI50 (SF-268): > 100 µM (inactive) | GI50 (LOX IMVI): > 100 µM (inactive) | GI50 (HOP-92): > 100 µM (inactive) | GI50 (OVCAR-4): > 100 µM (inactive) | GI50 (SN12C): > 100 µM (inactive) | GI50 (DU-145): > 100 µM (inactive) | GI50 (RPMI-8226): > 100 µM (inactive) | GI50 (HCT-116): > 100 µM (inactive) | GI50 (RXF 393): > 100 µM (inactive) | GI50 (MCF7): > 100 µM (inactive) | GI50 (SK-MEL-2): > 100 µM (inactive) | GI50 (MDA-N): > 100 µM (inactive) | GI50 (NCI-H226): > 100 µM (inactive) | GI50 (NCI-H460): > 100 µM (inactive) | GI50 (UACC-257): > 100 µM (inactive) | GI50 (A549): > 100 µM (inactive) | GI50 (A498): > 100 µM (inactive) | GI50 (MDA-MB-435): > 100 µM (inactive) | GI50 (M14): > 100 µM (inactive) | GI50 (CAKI-1): > 100 µM (inactive) | GI50 (SNB-75): > 100 µM (inactive) | GI50 (K562): > 100 µM (inactive) | GI50 (SNB-19): > 100 µM (inactive) | GI50 (786-0): > 100 µM (inactive) | GI50 (Malme-3M): > 100 µM (inactive) | GI50 (OVCAR-3): > 100 µM (inactive) | GI50 (TK-10): > 100 µM (inactive) | GI50 (SK-OV-3): > 100 µM (inactive) | GI50 (COLO 205): > 100 µM (inactive) | GI50 (SR): > 100 µM (inactive) | GI50 (KM12): > 100 µM (inactive) | GI50 (MDA-MB-231): > 100 µM (inactive) | GI50 (SF-295): > 100 µM (inactive) | GI50 (OVCAR-5): > 100 µM (inactive) | GI50 (HOP-62): > 100 µM (inactive) | GI50 (HL-60): > 100 µM (inactive) | GI50 (BT-549): > 100 µM (inactive) | GI50 (SK-MEL-5): > 100 µM (inactive) | GI50 (OVCAR-8): > 100 µM (inactive) | GI50 (HCT-15): > 100 µM | GI50 (Hs-578T): > 100 µM (inactive) | GI50 (UACC-62): > 100 µM (inactive)

C[N+](C)(C)CC(=O)N/N=C/c1ccncc1
GI50 (NCI-H23): > 100 µM (inactive) | GI50 (IGROV-1): > 100 µM (inactive) | GI50 (T47D): > 100 µM (inactive) | GI50 (ACHN): > 100 µM (inactive) | GI50 (UO-31): > 100 µM (inactive) | GI50 (SW-620): > 100 µM (inactive) | GI50 (HT-29): > 100 µM (inactive) | GI50 (U-251): > 100 µM (inactive) | GI50 (EKVX): > 100 µM (inactive) | GI50 (CCRF-CEM): > 100 µM (inactive) | GI50 (PC-3): > 100 µM (inactive) | GI50 (NCI/ADR-RES): > 100 µM (inactive) | GI50 (NCI-H522): > 100 µM (inactive) | GI50 (SK-MEL-28): > 100 µM (inactive) | GI50 (SF-268): > 100 µM (inactive) | GI50 (LOX IMVI): > 100 µM (inactive) | GI50 (HOP-92): > 100 µM (inactive) | GI50 (OVCAR-4): > 100 µM (inactive) | GI50 (SN12C): > 100 µM (inactive) | GI50 (DU-145): > 100 µM (inactive) | GI50 (RPMI-8226): > 100 µM (inactive) | GI50 (HCT-116): > 100 µM (inactive) | GI50 (RXF 393): > 100 µM (inactive) | GI50 (MCF7): > 100 µM (inactive) | GI50 (SK-MEL-2): > 100 µM (inactive) | GI50 (MDA-N): > 100 µM (inactive) | GI50 (NCI-H226): > 100 µM (inactive) | GI50 (NCI-H460): > 100 µM (inactive) | GI50 (UACC-257): > 100 µM (inactive) | GI50 (A549): > 100 µM (inactive) | GI50 (MOLT-4): > 100 µM (inactive) | GI50 (A498): > 100 µM (inactive) | GI50 (MDA-MB-435): > 100 µM (inactive) | GI50 (M14): > 100 µM (inactive) | GI50 (CAKI-1): > 100 µM (inactive) | GI50 (SNB-75): > 100 µM (inactive) | GI50 (K562): > 100 µM (inactive) | GI50 (SNB-19): > 100 µM (inactive) | GI50 (786-0): > 100 µM (inactive) | GI50 (SF-539): > 100 µM (inactive) | GI50 (Malme-3M): > 100 µM (inactive) | GI50 (OVCAR-3): > 100 µM (inactive) | GI50 (TK-10): > 100 µM (inactive) | GI50 (SK-OV-3): > 100 µM (inactive) | GI50 (COLO 205): > 100 µM (inactive) | GI50 (SR): > 100 µM (inactive) | GI50 (KM12): > 100 µM (inactive) | GI50 (MDA-MB-231): > 100 µM (inactive) | GI50 (SF-295): > 100 µM (inactive) | GI50 (OVCAR-5): > 100 µM (inactive) | GI50 (HOP-62): > 100 µM (inactive) | GI50 (HL-60): 65.6 µM (inactive) | GI50 (BT-549): > 100 µM (inactive) | GI50 (SK-MEL-5): > 100 µM (inactive) | GI50 (OVCAR-8): > 100 µM (inactive) | GI50 (HCT-15): > 100 µM | GI50 (Hs-578T): > 100 µM (inactive) | GI50 (UACC-62): > 100 µM (inactive)
